From patent US12144864B2, “Tubulysins and protein-tubulysin conjugates” (Regeneron Pharmaceuticals, Inc., priority 2018, dated 2024)
Where two headings read alike, the source gives them in different places.

Key:
HCT15 cells = assay: cells; format: cell-based, human; conditions: HCT15 cells; for HCT-15 + verapamil % Kill / HCT-15 % Kill: maximum % cell killing
Protocol: (§1) To test the ability of the disclosed tubulysin payloads to kill human cell lines, an in vitro cytotoxicity assay was performed. In vitro cytotoxicity of the disclosed payloads, as well as reference compounds, were evaluated using the CellTiter-Glo Assay Kit (Promega, Cat #G7573), in which the quantity of ATP present is used to determine the number of viable cells in culture. For the assay, C4-2, HEK293, or T47D cells were seeded at 4000 cells/well on Nunclon white 96-well plates in complete growth medium (DME high glucose:Ham's F12 at 4:1, 10% FBS, 100 units/ml Penicillin, 100 ug/ml streptomycin, 53 ug/ml glutatmine, 10 ug/ml insulin, 220 ng/ml biotin, 12.5 pg/ml T3, 12.5 ug/ml Adenine, 4 ug/ml transferrin for C42 cells; DME high glucose, 10% FBS, 100 units/ml Penicillin, 100 ug/ml streptomycin, 53 ug/ml glutatmine for HEK293; RPMI, 10% FBS, 100 units/ml Penicillin, 100 ug/ml streptomycin, 53 ug/ml glutatmine, 10 ug/ml insulin, 10 mM HEPEs, 200 nM Sodium Pyruvate for T47D cells) and grown overnight at 37° C. in 5% CO2. For cell viability curves, 1:3 serially diluted payloads were added to the cells at final concentrations ranging from 100 nM to […], including a no treatment control group, and were then incubated for 5 days. After the 5-day incubation, cells were incubated at room temperature with 100 μL of CellTiter-Glo reagents for 10 minutes. Relative luminescence units (RLU) were determined on a Victor plate reader (PerkinElmer). The IC50 values were determined from a four-parameter logistic equation over a 10-point response curve (GraphPad Prism). All IC50 values are expressed in molar (M) concentration. The percent cell killing (% kill) at the maximum concentration tested was estimated from the following formula (100−% viable cells). Averages±standard deviation (SD) are included where replicate experiments were performed.
In vitro cytotoxicity of the disclosed payloads as well as reference compounds were evaluated similarly as described above except using 1000 HCT15 cells, a colorectal carcinoma cell line, in growth medium (RPMI, 10% FBS, 100 units/ml Penicillin, 100 ug/ml streptomycin, 53 ug/ml glutatmine) with or without 5 ug/mL of Verapamil.

HL60/MX2 cells = assay: Cytotoxicity in panel of MDR cell lines, HL60/MX2 (72 h and 144 h); format: cell-based, human; conditions: for IC50: Homo sapiens
Protocol: as §1
(§2) To further test the ability of the disclosed tubulysin payloads, a cytotoxicity assay was performed using a panel of multidrug resistant (MDR) cell lines. In vitro cytotoxicity of the disclosed payloads as well as reference compounds were similarly evaluated as described above except using HCT-15 cells, a colorectal carcinoma cell line; H69AR, a doxorubicin resistant MDR derivative of the small cell lung cancer carcinoma cell line NCI-H69; MES-SA/MX2, a mitoxantrone resistant MDR derivative of the uterine sarcoma cell line MES-SA; and HL60/MX2, a mitoxantrone resistant MDR derivative of the acute promyelocytic leukemia cell line HL60. In these assays, cytotoxicity was evaluated in normal growth media (RPMI, 10% FBS, 100 units/ml Penicillin, 100 ug/ml streptomycin, and 53 ug/ml glutatmine for HCT-15 and HL60/MX2; RPMI, 20% FBS, 100 units/ml Penicillin, 100 ug/ml streptomycin, and 53 ug/ml glutatmine for H69-AR; Waymouths's:McCoy's (1:1), 10% FBS, 100 units/ml Penicillin, 100 ug/ml streptomycin, and 53 ug/ml glutatmine for MES-SA/MX2) with 1000 cells per well following 72 h and 144 h incubation with payloads.

MES-SA/MX2 cells = assay: Cytotoxicity in panel of MDR cell lines, MES-SA/MX2 (72 h and 144 h); format: cell-based, human; conditions: for IC50: Homo sapiens
Protocol: as §1, §2

HCT-15 cells = assay: Cytotoxicity in panel of MDR cell lines, HCT-15 (72 h and 144 h); format: cell-based, human; conditions: for IC50: Homo sapiens
Protocol: as §1, §2

H69AR cells = assay: Cytotoxicity in panel of MDR cell lines, H69AR (72 h and 144 h); format: cell-based, human; conditions: for IC50: Homo sapiens
Protocol: as §1, §2

C4-2 cells = assay: Cell-based killing assay of payloads (CellTiter-Glo), C4-2 cells; set-up: species or system human; conditions: 5-day incubation; for IC50: Homo sapiens, C4-2, 120 h, average ± SD where replicates; for C4-2 % Kill: at maximum concentration tested (100 − % viable cells)
Protocol: as §1

[1] = with 5 ug/mL Verapamil, read-out: HCT-15 + verapamil IC50
[2] = Homo sapiens, HCT-15, without Verapamil, read-out: HCT-15 IC50
[3] = 72 h incubation, read-out: HL60/MX2 IC50 72 h
[4] = 144 h incubation, read-out: HL60/MX2 IC50 144 h
[5] = 72 h incubation, read-out: MES-SA/MX2 IC50 72 h
[6] = 144 h incubation, read-out: MES-SA/MX2 IC50 144 h
[7] = 72 h incubation, read-out: HCT-15 IC50 72 h
[8] = 144 h incubation, read-out: HCT-15 IC50 144 h
[9] = 72 h incubation, read-out: H69AR IC50 72 h
[10] = 144 h incubation, read-out: H69AR IC50 144 h

Row | SMILES | HCT-15 + verapamil % Kill (HCT15 cells; with 5 ug/mL Verapamil) | IC50 (HCT15 cells; [1]) | HCT-15 % Kill (HCT15 cells; without Verapamil) | IC50 (HCT15 cells; [2]) | HL60/MX2 % Kill 72 h (HL60/MX2 cells; 72 h incubation) | HL60/MX2 % Kill 144 h (HL60/MX2 cells; 144 h incubation) | IC50 (HL60/MX2 cells; [3]) | IC50 (HL60/MX2 cells; [4]) | MES-SA/MX2 % Kill 72 h (MES-SA/MX2 cells; 72 h incubation) | MES-SA/MX2 % Kill 144 h (MES-SA/MX2 cells; 144 h incubation) | IC50 (MES-SA/MX2 cells; [5]) | IC50 (MES-SA/MX2 cells; [6]) | HCT-15 % Kill 72 h (HCT-15 cells; 72 h incubation) | HCT-15 % Kill 144 h (HCT-15 cells; 144 h incubation) | IC50 (HCT-15 cells; [7]) | IC50 (HCT-15 cells; [8]) | H69AR % Kill 72 h (H69AR cells; 72 h incubation) | H69AR % Kill 144 h (H69AR cells; 144 h incubation) | IC50 (H69AR cells; [9]) | IC50 (H69AR cells; [10]) | other results
1 | C#CCCCCN(C(=O)[C@@H](NC(=O)[C@H]1CCCCN1C)[C@@H](C)CC)[C@H](C[C@@H](OC(C)=O)c1nc(C(=O)N[C@@H](Cc2ccccc2)CC(C)(C)C(=O)O)cs1)C(C)C [IVb, (4S)-4-({2-[(1R,3R)-1-(Acetyloxy)-3-[(2S,3S)—N-(hex-5-yn-1-yl)-3-methyl-2-{[(2R)-1-methylpiperidin-2-yl]formamido}pentanamido]-4-methylpentyl]-1,3-thiazol-4-yl}formamido)-2,2-dimethyl-5-phenylpentanoic acid] | 98.1% | 0.103 nM | 98% | 0.151 nM | – | – | – | – | – | – | – | – | – | – | – | – | – | – | – | – | –
2 | CCCCCCN(C(=O)[C@@H](NC(=O)[C@H]1CCCCN1C)[C@@H](C)CC)[C@H](C[C@@H](OC(C)=O)c1nc(C(=O)N[C@@H](Cc2ccc(F)cc2)CC(C)(C)C(=O)O)cs1)C(C)C [VIII, (4S)-4-({2-[(1R,3R)-1-(Acetyloxy)-3-[(2S,3S)—N-hexyl-3-methyl-2-{[(2R)-1-methylpiperidin-2-yl]formamido}pentanamido]-4-methylpentyl]-1,3-thiazol-4-yl}formamido)-5-(4-fluorophenyl)-2,2-dimethylpentanoic acid] | – | – | – | – | – | – | – | – | – | – | – | – | – | – | – | – | – | – | – | – | IC50 (HCT15 cells; with 5 ug/mL Verapamil, read-out: HCT-15 + verapamil IC50 (value in brackets)): 0.106 nM; IC50 (HCT15 cells; Homo sapiens, HCT-15, without Verapamil, read-out: HCT-15 IC50 (value in brackets)): 0.295 nM
3 | CCCCCCN(C(=O)[C@@H](NC(=O)[C@H]1CCCCN1C)[C@@H](C)CC)[C@H](C[C@@H](OC(C)=O)c1nc(C(=O)NC(Cc2ccc(N)c(O)c2)CC(C)(C)C(=O)O)cs1)C(C)C (stereo partly drawn) [IVx, 4-(2-((1R,3R)-1-Acetoxy-3-((2S,3S)—N-hexyl-3-methyl-2-((R)-1-methylpiperidine-2-carboxamido)pentanamido)-4-methylpentyl)thiazole-4-carboxamido)-5-(4-amino-3-hydroxyphenyl)-2,2-dimethylpentanoic acid] | – | – | – | – | 96.9% | 100% | 0.955 nM | 0.77 nM | 62.1% | 33.6% | > 100 nM | > 100 nM | 84.4% | 91% | 34.5 nM | 84.8 nM | 48.7% | 38% | > 100 nM | > 100 nM | –
4 | CCCCCCN(C(=O)[C@@H](NC(=O)[C@H]1CCCCN1C)[C@@H](C)CC)[C@H](C[C@@H](OC(C)=O)c1nc(C(=O)N[C@@H](Cc2ccc(N)cc2)CC(C)(C)C(=O)O)cs1)C(C)C [IVq, (S)-4-(2-((1R,3R)-1-Acetoxy-3-((2S,3S)—N-hexyl-3-methyl-2-((R)-1-methylpiperidine-2-carboxamido)pentanamido)-4-methylpentyl)thiazole-4-carboxamido)-5-(4-aminophenyl)-2,2-dimethylpentanoic acid] | 98.6 ± 0.7% | 0.0225 nM | 98.4 ± 0.8% | 0.0423 nM | 98.6% | 100% | < 0.015 nM | < 0.015 nM | 99.4% | 100% | 0.0589 nM | 0.105 nM | 98% | 99.8% | < 0.015 nM | 0.0277 nM | 96.9% | 99.5% | 0.0642 nM | 0.128 nM | –
5 | [2H]c1cc(C[C@@H](CC(C)(C)C(=O)O)NC(=O)c2csc([C@@H](C[C@H](C(C)C)N(CCCCC#C)C(=O)[C@@H](NC(=O)[C@H]3CCCCN3C)[C@@H](C)CC)OC(C)=O)n2)cc([2H])c1N [IVr, (S)-4-(2-((1R,3R)-1-Acetoxy-3-((2S,3S)—N-(hex-5-yn-1-yl)-3-methyl-2-((R)-1-methylpiperidine-2-carboxamido)pentanamido)-4-methylpentyl)thiazole-4-carboxamido)-5-(4-aminophenyl-3,5-d2)-2,2-dimethylpentanoic acid] | 99% | 0.0624 nM | 99.1% | 0.0893 nM | 98.7% | 100% | < 0.015 nM | < 0.015 nM | 99.1% | 100% | 0.151 nM | 0.176 nM | 98% | 99.7% | 0.0401 nM | 0.0621 nM | 96.7% | 99% | 0.137 nM | 0.211 nM | –
6 | CC[C@H](C)[C@H](NC(=O)[C@H]1CCCCN1C)C(=O)N(CCCCc1cn(CC(=O)O)nn1)[C@H](C[C@@H](OC(C)=O)c1nc(C(=O)N[C@@H](Cc2ccc(N)cc2)CC(C)(C)C(=O)O)cs1)C(C)C [IVm, (S)-4-(2-((1R,3R)-1-acetoxy-3-((2S,3S)—N-(4-(1-(carboxymethyl)-1H-1,2,3-triazol-4-yl)butyl)-3-methyl-2-((R)-1-methylpiperidine-2-carboxamido)pentanamido)-4-methylpentyl)thiazole-4-carboxamido)-5-(4-aminophenyl)-2,2-dimethylpentanoic acid] | – | – | – | – | – | – | – | – | – | – | – | – | – | – | – | – | – | – | – | – | IC50 (C4-2 cells): > 100 nM; C4-2 % Kill (C4-2 cells): 8.9%
7 | C#CCCCON(C(=O)[C@@H](NC(=O)[C@H]1CCCCN1C)[C@@H](C)CC)[C@H](C[C@@H](OC(=O)NCC)c1nc(C(=O)N[C@@H](Cc2ccc(NC(C)=O)cc2)CC(C)(C)C(=O)O)cs1)C(C)C [VIg, (4S)-5-(4-Acetamidophenyl)-4-({2-[(1R,3R)-1-[(ethylcarbamoyl)oxy]-4-methyl-3-[(2S,3S)-3-methyl-2-{[(2R)-1-methylpiperidin-2-yl]formamido}-N-(pent-4-yn-1-yloxy)pentanamido]pentyl]-1,3-thiazol-4-yl}formamido)-2,2-dimethylpentanoic acid] | – | – | – | – | – | – | – | – | – | – | – | – | – | – | – | – | – | – | – | – | IC50 (C4-2 cells): > 100 nM; C4-2 % Kill (C4-2 cells): 10.9%
8 | CCCCCCN(C(=O)[C@@H](NC(=O)[C@H]1CCCCN1C)[C@@H](C)CC)[C@H](C[C@@H](OC(C)=O)c1nc(C(=O)N[C@@H](Cc2ccc(N)cc2)CC(C)(C)C(=O)NN)cs1)C(C)C [IVy, (1R,3R)-1-(4-((S)-1-(4-Aminophenyl)-5-hydrazinyl-4,4-dimethyl-5-oxopentan-2-ylcarbamoyl)thiazol-2-yl)-3-((2S,3S)—N-hexyl-3-methyl-2-((R)-1-methylpiperidine-2-carboxamido)pentanamido)-4-methylpentyl acetate] | – | – | – | – | – | – | – | – | – | – | – | – | – | – | – | – | – | – | – | – | IC50 (C4-2 cells): 1.82 nM; C4-2 % Kill (C4-2 cells): 94.4%
